Measurements published in BindingDB's records for PubMed 10617681 (Dupont Pharmaceuticals, 2000).

Legend:
[1] = target: 5-hydroxytryptamine receptor 2B (Homo sapiens, UniProt P41595)
[2] = target: T1, 5-hydroxytryptamine receptor 2C (Homo sapiens, UniProt P28335)
T1 sequence (P28335 whole entry): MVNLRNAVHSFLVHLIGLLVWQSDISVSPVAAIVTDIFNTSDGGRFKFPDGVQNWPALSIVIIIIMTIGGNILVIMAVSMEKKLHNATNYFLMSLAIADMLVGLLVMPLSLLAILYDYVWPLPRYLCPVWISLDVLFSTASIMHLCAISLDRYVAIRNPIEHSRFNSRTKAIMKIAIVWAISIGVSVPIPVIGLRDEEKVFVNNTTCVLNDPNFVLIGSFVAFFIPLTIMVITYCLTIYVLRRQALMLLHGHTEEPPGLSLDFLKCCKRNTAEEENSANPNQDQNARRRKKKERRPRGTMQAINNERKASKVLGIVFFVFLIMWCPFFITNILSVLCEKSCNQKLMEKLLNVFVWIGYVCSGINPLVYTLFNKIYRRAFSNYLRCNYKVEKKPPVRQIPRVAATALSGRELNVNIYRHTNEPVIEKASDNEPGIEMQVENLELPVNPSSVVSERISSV

5-hydroxytryptamine receptor 2B, sequence (P41595 whole entry): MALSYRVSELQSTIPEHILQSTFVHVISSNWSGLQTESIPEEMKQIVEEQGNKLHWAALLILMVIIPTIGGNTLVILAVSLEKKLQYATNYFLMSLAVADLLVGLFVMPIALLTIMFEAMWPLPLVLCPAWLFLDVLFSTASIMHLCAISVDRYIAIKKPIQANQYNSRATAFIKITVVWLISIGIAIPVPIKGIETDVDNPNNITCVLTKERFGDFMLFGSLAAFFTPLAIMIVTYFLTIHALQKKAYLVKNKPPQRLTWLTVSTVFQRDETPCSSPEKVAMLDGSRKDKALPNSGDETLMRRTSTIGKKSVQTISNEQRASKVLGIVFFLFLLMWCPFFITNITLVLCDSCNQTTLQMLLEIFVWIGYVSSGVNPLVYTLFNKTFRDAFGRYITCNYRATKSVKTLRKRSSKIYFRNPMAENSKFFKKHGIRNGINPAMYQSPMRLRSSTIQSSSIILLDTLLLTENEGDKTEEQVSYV

| Structure (SMILES) | Ki [1] [nM] | Ki [2] [nM] |
| --- | --- | --- |
| C[C@H](N)Cc1cccc(C(F)(F)F)c1 [Norfenfluramine (+)] | 27 | 56 |
| C[C@@H](N)Cc1cccc(C(F)(F)F)c1 [l-norfenfluramine] | 65 | 99 |
